Data: patent US11466006B2, “Dual selective PI3 delta and gamma kinase inhibitors” (Rhizen Pharmaceuticals SA, priority 2013, dated 2022)
Where two headings read alike, the source gives them in different places.

Columns and labels:
Pi3K β = target: T1, Pi3K β (Homo sapiens, UniProt P42338); assay: Fluorescent (HTRF) determination of PI3 kinase enzyme activity, beta isoform; assay type: biochemical; conditions: Table 1, HTRF
T1 construct: purchased Millipore (assay kit)
Text: (§1) Phosphoinositide 3 kinases (PI3K) belong to a class of lipid kinases that play a critical role in the regulation of several key cellular processes. The PI3K are capable of phosphorylating the 3-hydroxy position of phosphoinositols thereby generating second messengers involved in downstream signalling events. The homogenous time resolved fluorescence (HTRF) assay allows detection of 3,4,5-triphosphate (PIP3) formed as a result of phosphorylation of phosphotidylinositol 4,5-biphosphate (PIP2) by PI3K isoforms such as α, β, γ or δ.
(§2) PI3K isoform activity for α, β, γ or δ was determined using a PI3K human HTRF™ Assay Kit (Millipore, Billerica, Mass.) with modifications. All incubations were carried out at room temperature. Briefly, 0.5 μl of 40× inhibitor (in 100% DMSO) or 100% DMSO were added to each well of a 384-well white plate (Greiner Bio-One, Monroe, N.C.) containing 14.5 μl 1× reaction buffer /PIP2 (10 mM MgCl2, 5 mM DTT, 1.38 μM PIP2) mix with or without enzyme, followed by 5 μl/well of 400 μM ATP and incubated for an additional 30 minutes. Reaction was terminated by adding 5 μl/well stop solution (Millipore, Billerica, Mass.). […] HRTF ratio was measured on a microplate reader (BMG Labtech., Germany) at an excitation wavelength of 337 nm and emission wavelengths of 665 and 615 nm with an integration time of 400 msec counting delay of 50 msec.

Pi3K γ = Pi3K γ (Homo sapiens, UniProt P48736); assay: fMLP induced CD63 expression in basophils from human whole blood; assay type: cell-based; conditions: n=10, read-out: IC50 for fMLP (PI3K γ), CD63 positive basophils
Pi3K γ, sequence (P48736 whole entry): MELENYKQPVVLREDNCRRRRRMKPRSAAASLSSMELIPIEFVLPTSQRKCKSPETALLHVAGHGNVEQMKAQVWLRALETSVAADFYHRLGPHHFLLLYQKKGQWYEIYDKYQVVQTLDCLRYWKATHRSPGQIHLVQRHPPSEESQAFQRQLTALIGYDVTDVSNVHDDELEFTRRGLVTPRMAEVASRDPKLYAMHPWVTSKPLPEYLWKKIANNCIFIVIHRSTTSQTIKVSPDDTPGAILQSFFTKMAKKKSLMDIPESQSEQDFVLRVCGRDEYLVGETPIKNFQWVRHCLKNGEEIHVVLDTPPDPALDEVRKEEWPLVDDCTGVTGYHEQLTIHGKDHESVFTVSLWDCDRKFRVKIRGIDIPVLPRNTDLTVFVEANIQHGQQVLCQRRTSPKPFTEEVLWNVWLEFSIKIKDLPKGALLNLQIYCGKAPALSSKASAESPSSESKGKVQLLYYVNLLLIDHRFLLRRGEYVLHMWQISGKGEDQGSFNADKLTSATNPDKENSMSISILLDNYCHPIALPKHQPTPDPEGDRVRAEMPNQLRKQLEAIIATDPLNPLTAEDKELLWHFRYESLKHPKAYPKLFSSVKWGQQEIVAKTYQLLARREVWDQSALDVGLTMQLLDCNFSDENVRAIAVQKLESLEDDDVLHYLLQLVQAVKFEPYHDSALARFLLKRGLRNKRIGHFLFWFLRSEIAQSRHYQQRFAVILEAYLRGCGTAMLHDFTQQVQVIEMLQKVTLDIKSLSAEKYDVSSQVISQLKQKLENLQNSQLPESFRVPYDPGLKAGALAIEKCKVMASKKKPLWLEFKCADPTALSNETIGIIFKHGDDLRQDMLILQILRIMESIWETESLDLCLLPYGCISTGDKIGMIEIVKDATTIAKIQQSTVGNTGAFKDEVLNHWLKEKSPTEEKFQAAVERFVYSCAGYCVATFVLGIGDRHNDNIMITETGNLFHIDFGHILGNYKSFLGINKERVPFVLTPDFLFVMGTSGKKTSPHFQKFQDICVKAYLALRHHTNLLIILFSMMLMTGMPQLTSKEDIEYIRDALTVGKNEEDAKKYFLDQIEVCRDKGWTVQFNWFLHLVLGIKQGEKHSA
Protocol: (§3) PI3K δ and γ signalling in basophils manifested by an alteration of anti-FcεR1 or fMLP induced CD63 expression is a useful pharmacodynamic marker determined using the Flow2CAST® kit (Buhlmann Laboratories, Switzerland). Briefly, it involves the following steps: • Mix the anti-coagulated blood sample by inverting the venipuncture tube several times; • Prepare fresh and pyrogen-free 3.5 ml polypropylene or polystyrene tubes suitable for Flow Cytometry measurements; • Add 49 μl of patient's whole blood to each tube; • Add 1 μl of 10% DMSO (background) or compound (10% DMSO) to the assigned tubes and mix gently. Incubate at room temperature for 15 minutes; • Pipet 50 μl of the Stimulation buffer (background) or anti-FcεRI Ab or or fMLP to each tube; • Add 100 μl of Stimulation Buffer to each tube; • Mix gently. Add 20 μl Staining Reagent (1:1 mix of FITC-CD63 and PE-CCR3) to each tube; • Mix gently, cover the tubes and incubate for 15 minutes at 37° C. in a water bath. […]
(§4) Percent CD63 positive cells within the gated basophil population were determined in different treatment groups and normalized to vehicle control.

Primary CLL cells = assay: Anti-cancer activity in human CLL cells (MTS cytotoxicity); assay type: cell-based; conditions: CLL cell, 72 h, 3 days, read-out: median EC50, cytotoxicity in CLL cells
Protocol: Primary CLL cells were enriched using Rosette-Sep B cells from Stem Cell Technology, generally giving purity of >97% of B cells/CLL cells. Cells were seeded at 2.5×10^5 per well in a 96 well with either serum free medium (SFM) or SFM+10% heat-inactivated fetal bovine serum (volume 100 microliters) in the presence of desired concentrations of the test compound and cultured for 3 days at 37° C. in a carbon dioxide incubator. Cytotoxicity was determined using the MTS assay.

[1] = system: anti-human CD3/CD28 co-stimulated primary T-cells; assay: Cytokine assay in anti-human CD3 and CD28 co-stimulated primary T-cells (ELISA); assay type: cell-based; conditions: T-cell, anti-human CD3-CD28 induced, 24 h, eight independent experiments
Protocol: The objective of this study was to assess the inhibitory potential of Compound A1 on cytokines produced by anti-human CD3/CD28 co-stimulated primary T-cells.
• Plates were coated with 50 μl of anti-human CD3 at a concentration of 100 ng/ml either overnight at 4° C. or for 2 h at 37° C. After incubation, plates were washed twice with sterile PBS to remove unbound antibody. • Isolated human T-cells were re-suspended to 0.625×10^6 cells per ml in 1.5 ml tubes and 1 μl of drug dilution (1000×) was added. A DMSO blank and un-induced blank were maintained. • Cells were incubated with compound at room temperature for 30 min and then added to anti-human CD3 coated wells of a 96-well plate, 240 μl each. Anti-human CD28 was added immediately, 10 μl (25×) per well. • Plate was incubated at 37° C., 5% CO2 for 24 h. • Plates were centrifuged at 4000 rpm at room temperature, supernatant was collected and stored at −20° C. • Cytokines were determined using a commercial ELISA kit with absorbance read at 450 and 570 nm.

PI3Kδ [2] = target: T2, PI3Kδ (Homo sapiens, UniProt O00329); assay: Fluorescent (HTRF) determination of PI3 kinase enzyme activity, delta isoform; assay type: biochemical; design: purchased Millipore (assay kit); conditions: Table 1, HTRF; read-out: IC50 (nM) Pi3Kδ
T2 sequence (O00329 whole entry, canonical isoform): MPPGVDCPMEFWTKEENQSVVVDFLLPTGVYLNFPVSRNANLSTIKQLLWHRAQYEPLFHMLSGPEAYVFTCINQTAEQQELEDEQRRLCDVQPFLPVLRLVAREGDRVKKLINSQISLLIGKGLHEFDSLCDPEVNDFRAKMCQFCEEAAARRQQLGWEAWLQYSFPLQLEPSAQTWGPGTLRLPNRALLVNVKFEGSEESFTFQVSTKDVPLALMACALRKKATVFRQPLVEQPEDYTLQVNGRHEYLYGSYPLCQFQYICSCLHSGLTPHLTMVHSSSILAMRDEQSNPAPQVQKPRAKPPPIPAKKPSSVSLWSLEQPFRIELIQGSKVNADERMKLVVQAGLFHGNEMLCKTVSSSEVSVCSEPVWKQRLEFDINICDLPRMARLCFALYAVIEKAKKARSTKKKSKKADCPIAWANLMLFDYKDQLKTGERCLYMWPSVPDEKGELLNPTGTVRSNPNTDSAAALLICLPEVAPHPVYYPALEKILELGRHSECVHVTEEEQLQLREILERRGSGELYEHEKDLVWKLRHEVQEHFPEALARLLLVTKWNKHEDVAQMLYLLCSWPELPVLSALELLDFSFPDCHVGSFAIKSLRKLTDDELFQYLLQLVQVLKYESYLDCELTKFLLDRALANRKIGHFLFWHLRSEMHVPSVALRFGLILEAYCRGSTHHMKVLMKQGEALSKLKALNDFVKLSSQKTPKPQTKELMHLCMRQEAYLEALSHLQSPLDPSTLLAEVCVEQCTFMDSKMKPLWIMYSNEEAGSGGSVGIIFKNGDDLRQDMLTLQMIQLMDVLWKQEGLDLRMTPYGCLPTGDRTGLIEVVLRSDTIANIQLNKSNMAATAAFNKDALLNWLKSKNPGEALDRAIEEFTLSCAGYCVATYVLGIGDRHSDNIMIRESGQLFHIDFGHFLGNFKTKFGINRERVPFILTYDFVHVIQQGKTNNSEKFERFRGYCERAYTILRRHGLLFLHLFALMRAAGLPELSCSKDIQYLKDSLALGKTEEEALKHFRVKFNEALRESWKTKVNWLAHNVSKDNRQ
T2 sequence (P27986 whole entry partner, canonical isoform): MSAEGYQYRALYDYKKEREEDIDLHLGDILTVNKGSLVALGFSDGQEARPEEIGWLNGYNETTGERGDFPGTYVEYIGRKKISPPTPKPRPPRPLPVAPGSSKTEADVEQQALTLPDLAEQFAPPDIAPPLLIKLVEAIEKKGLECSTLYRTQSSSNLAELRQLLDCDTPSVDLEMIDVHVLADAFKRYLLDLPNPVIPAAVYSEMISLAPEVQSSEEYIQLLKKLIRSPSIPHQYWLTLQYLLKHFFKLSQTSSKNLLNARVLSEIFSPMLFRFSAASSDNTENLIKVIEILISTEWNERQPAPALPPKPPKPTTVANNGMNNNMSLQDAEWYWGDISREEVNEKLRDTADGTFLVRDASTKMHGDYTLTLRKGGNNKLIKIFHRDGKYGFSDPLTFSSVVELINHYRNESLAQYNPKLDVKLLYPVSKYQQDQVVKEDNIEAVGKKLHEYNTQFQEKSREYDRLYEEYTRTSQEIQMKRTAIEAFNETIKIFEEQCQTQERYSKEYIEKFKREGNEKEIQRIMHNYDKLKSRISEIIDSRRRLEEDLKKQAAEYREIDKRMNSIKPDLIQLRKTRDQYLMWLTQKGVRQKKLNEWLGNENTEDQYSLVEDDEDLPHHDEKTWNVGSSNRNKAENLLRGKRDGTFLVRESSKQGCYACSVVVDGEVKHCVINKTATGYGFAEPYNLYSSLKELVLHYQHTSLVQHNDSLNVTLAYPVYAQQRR
Text: as §1, §2

PI3Kδ [3] = target: T2, PI3Kδ; assay: Anti-FcεR1 induced CD63 expression in basophils from human whole blood; assay type: cell-based; design: Add 49 μl of patient's whole blood to each tube; endogenous in cells; host or cells: basophils in human whole blood; conditions: n=10, read-out: EC50 for FcεR1 (PI3K δ), CD63 positive basophils
Protocol: as §3, §4

T1 sequence (P42338 whole entry, canonical isoform): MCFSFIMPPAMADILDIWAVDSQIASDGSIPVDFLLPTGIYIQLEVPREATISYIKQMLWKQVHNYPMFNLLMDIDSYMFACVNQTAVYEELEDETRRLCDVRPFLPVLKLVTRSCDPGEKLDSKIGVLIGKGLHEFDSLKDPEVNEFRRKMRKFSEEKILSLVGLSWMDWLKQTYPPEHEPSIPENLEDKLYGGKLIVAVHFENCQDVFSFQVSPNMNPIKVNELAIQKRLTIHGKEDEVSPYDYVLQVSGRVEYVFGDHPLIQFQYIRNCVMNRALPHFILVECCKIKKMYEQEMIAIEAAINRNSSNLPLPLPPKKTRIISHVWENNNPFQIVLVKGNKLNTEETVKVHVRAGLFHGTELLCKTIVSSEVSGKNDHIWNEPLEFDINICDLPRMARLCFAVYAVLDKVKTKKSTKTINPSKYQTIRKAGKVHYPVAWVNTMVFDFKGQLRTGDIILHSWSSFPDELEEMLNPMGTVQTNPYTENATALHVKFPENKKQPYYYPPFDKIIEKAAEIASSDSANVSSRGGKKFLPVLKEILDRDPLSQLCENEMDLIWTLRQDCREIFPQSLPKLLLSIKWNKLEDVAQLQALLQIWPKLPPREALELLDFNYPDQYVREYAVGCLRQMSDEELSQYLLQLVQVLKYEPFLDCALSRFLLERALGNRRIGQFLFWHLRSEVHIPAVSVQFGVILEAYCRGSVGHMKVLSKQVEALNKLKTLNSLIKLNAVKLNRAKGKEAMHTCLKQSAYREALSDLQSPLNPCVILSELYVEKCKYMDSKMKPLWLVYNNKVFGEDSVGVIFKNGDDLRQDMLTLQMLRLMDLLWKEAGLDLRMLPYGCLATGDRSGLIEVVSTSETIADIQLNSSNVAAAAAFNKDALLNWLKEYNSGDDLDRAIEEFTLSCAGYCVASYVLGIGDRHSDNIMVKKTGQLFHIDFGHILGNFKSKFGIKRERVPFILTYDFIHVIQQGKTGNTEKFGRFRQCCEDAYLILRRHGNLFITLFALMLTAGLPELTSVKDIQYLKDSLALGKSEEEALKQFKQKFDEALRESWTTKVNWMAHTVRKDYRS
T1 sequence (P27986 whole entry partner, canonical isoform): as the sequence (P27986 whole entry partner, canonical isoform) above

CC[C@H](Nc1ncnc2[nH]cnc12)c1oc2ccccc2c(=O)c1-c1cccc(F)c1 [Compound A1, (S)-2-(1-(9H-purin-6-ylamino)propyl)-3-(3-fluorophenyl)-4H-chromen-4-one]
IC50 (Pi3K β): > 4000 nM | IC50 (Pi3K γ): < 40 nM | EC50 (Primary CLL cells; 10% FBS media): < 700 nM | EC50 (Primary CLL cells; serum-free medium): < 100 nM | IC50 ([1]; read-out: IC50, IFNγ): 9.54 nM | IC50 ([1]; read-out: IC50, IL2): 20.6 nM | IC50 ([1]; read-out: IC50, TNFα): 24 nM | IC50 (PI3Kδ [2]): 23.8 nM | EC50 (PI3Kδ [3]): < 40 nM
